How the values were obtained:
Experiment in all cases: radiometric filter-binding kinase assay
[1] = biological target: MAPK14 (human) (UniProt Q16539); settings: ATP 50 µM
[2] = biological target: MAPK15 (human) (UniProt Q8TD08); settings: ATP 5 µM
[3] = biological target: MARK3 (human) (UniProt P27448); settings: ATP 5 µM
[4] = biological target: PDPK1 (human) (UniProt O15530)
[5] = biological target: PI4KA (human) (UniProt P42356)
[6] = biological target: PI4KB (human) (UniProt Q9UBF8)
[7] = biological target: PIM1 (human) (UniProt P11309); settings: ATP 20 µM
[8] = biological target: PIM3 (human) (UniProt Q86V86); settings: ATP 20 µM
[9] = biological target: PLK1 (human) (UniProt P53350); settings: ATP 5 µM
[10] = biological target: PRKAA1 PRKAB2 PRKAG1 (human) (UniProt O43741+Q13131+P54619); settings: ATP 50 µM
[11] = biological target: PRKCZ (human) (UniProt Q05513); settings: ATP 5 µM
[12] = tested on: ROCK2 (rat); settings: ATP 20 µM, accession and sequence are those of the human protein
[13] = biological target: RPS6KA1 KD1 KD2 (human) (UniProt Q15418); settings: ATP 100 µM
[14] = biological target: RPS6KA5 KD1 KD2 (human) (UniProt O75582); settings: ATP 100 µM

Chain of MAPK15 (human) (Q8TD08 whole entry, looked up): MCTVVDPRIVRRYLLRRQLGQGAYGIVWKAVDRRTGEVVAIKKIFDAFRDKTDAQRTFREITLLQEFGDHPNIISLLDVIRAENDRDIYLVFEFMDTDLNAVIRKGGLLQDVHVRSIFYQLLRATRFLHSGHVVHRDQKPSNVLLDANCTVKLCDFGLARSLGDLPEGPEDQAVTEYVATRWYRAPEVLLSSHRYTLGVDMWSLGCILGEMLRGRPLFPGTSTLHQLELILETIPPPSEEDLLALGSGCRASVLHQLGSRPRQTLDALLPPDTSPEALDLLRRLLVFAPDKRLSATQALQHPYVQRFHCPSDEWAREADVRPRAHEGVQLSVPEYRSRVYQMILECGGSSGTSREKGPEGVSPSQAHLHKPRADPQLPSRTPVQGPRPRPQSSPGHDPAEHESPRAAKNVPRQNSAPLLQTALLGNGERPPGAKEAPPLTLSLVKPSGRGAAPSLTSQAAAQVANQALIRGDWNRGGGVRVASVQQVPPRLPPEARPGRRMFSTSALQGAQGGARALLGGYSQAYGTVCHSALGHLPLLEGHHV
Chain of PLK1 (human) (P53350 whole entry, looked up): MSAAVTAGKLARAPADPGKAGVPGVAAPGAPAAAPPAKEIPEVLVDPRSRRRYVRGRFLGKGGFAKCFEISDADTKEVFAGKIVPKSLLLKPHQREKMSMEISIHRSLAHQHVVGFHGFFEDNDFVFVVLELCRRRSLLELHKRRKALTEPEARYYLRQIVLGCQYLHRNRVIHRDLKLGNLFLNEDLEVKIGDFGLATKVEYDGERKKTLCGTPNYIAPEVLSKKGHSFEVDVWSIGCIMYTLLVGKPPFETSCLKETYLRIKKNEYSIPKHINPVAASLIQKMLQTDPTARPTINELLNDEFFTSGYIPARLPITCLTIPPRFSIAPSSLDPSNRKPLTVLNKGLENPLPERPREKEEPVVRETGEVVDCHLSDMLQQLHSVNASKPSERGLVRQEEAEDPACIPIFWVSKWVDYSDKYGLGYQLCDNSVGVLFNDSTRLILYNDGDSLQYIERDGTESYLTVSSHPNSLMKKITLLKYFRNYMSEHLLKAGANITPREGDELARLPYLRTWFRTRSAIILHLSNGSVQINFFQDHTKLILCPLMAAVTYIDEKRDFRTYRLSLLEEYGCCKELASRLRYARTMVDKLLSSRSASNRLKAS
Chain of PIM1 (human) (P11309 whole entry, looked up): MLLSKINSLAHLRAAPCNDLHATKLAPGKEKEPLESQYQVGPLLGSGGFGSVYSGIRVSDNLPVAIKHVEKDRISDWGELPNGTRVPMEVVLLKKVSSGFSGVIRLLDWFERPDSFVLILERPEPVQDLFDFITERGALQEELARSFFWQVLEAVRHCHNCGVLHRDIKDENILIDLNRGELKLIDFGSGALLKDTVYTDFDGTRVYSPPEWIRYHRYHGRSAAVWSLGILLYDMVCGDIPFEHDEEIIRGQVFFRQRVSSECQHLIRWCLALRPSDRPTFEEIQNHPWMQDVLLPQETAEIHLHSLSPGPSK
Chain of RPS6KA1 KD1 KD2 (human) (Q15418 whole entry, looked up): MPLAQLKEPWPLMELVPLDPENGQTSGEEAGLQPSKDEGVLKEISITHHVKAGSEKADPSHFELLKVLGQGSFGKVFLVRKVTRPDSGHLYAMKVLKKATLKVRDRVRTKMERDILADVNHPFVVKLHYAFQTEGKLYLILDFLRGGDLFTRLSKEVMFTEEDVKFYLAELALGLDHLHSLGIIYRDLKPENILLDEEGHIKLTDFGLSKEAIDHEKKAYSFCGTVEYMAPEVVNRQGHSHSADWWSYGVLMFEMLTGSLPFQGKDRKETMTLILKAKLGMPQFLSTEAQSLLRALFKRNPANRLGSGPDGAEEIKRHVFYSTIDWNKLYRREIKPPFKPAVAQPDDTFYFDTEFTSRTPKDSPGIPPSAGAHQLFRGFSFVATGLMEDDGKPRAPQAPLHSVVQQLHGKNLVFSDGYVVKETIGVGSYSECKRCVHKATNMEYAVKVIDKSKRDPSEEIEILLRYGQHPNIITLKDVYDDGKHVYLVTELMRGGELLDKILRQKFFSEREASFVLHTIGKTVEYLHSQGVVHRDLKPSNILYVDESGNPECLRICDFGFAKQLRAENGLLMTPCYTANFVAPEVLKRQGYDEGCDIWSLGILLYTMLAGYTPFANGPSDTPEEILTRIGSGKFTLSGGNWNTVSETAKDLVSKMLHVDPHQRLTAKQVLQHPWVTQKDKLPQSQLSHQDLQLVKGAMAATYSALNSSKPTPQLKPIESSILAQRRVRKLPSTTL
Chain of PRKAA1 PRKAB2 PRKAG1 (human) (O43741 whole entry, looked up): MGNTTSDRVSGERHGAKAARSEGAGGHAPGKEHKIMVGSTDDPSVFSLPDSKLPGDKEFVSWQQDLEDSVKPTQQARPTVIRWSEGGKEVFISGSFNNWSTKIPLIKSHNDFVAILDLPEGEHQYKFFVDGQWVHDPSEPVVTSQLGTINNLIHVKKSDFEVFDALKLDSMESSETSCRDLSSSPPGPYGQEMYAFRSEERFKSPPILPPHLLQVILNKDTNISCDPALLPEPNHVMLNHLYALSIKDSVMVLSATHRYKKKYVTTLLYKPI
Chain of PRKAA1 PRKAB2 PRKAG1 (human) (P54619 whole entry, looked up): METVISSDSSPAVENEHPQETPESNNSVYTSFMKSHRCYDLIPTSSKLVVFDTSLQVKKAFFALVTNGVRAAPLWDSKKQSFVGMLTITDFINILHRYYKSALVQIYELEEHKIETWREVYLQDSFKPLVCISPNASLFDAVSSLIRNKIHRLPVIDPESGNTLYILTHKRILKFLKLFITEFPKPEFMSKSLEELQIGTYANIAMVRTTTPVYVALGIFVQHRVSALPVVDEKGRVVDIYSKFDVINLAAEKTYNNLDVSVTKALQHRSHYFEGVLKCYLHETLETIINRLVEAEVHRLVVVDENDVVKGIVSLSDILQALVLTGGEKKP
Chain of PRKAA1 PRKAB2 PRKAG1 (human) (Q13131 whole entry, looked up): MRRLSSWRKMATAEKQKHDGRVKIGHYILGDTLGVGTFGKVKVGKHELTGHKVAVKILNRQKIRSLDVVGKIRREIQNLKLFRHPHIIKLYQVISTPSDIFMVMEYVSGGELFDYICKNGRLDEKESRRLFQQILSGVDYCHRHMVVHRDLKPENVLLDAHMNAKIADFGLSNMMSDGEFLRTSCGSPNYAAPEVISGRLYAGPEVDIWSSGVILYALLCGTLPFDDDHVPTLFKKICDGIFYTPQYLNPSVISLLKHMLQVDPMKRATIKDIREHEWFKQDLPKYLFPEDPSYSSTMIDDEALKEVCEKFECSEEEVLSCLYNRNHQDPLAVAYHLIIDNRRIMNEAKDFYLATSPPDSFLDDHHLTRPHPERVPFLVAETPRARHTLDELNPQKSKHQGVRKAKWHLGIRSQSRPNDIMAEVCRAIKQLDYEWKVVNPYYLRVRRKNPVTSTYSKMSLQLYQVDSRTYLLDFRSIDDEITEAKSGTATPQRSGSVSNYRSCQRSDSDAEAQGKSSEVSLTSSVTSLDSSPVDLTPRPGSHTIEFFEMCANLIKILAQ
Chain of MARK3 (human) (P27448 whole entry, looked up): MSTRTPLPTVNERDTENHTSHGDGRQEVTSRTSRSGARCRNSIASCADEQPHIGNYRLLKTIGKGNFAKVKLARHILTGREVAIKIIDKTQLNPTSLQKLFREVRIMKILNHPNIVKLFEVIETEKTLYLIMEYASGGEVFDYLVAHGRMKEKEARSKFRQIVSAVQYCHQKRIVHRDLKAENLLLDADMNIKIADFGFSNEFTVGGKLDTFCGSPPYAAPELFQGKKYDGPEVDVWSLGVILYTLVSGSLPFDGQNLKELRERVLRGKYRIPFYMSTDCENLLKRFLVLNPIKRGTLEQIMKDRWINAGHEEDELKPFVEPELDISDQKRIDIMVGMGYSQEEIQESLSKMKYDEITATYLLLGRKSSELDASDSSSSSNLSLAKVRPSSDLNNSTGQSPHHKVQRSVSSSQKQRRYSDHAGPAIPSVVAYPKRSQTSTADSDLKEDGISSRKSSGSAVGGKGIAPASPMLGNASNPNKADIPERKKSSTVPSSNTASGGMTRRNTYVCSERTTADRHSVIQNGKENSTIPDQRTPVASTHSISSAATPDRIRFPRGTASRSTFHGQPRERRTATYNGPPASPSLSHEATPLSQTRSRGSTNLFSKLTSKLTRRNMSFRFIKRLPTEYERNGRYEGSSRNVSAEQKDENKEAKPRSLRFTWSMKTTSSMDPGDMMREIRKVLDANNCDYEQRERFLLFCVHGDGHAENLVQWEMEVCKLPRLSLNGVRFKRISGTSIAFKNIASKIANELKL
Chain of PDPK1 (human) (O15530 whole entry, looked up): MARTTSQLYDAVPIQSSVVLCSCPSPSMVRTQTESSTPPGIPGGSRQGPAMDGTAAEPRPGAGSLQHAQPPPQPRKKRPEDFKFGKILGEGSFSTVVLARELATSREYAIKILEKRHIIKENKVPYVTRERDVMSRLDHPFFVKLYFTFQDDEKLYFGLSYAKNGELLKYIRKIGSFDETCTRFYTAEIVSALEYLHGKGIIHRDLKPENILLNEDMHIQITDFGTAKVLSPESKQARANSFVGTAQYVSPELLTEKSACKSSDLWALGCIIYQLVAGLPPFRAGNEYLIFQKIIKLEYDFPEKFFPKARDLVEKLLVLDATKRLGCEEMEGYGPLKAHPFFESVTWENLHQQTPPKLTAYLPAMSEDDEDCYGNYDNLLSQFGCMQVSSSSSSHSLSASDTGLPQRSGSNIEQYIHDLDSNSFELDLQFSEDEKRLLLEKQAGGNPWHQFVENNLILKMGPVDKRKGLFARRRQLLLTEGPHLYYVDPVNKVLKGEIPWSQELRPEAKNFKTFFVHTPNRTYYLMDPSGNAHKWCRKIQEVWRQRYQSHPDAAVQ

CCc1cncnc1N1CCN(Cc2nc3cc(C(F)(F)F)ccc3[nH]2)CC1
residual activity ([1]; compound 1.0 µM): 79% | residual activity ([1]; compound 10.0 µM): 86% | residual activity ([2]; compound 0.1 µM): 85% | residual activity ([2]; compound 1.0 µM): 83% | residual activity ([2]; compound 10.0 µM): 71% | residual activity ([3]; compound 0.1 µM): 94% | residual activity ([3]; compound 1.0 µM): 83% | residual activity ([3]; compound 10.0 µM): 82% | residual activity ([4]; compound 0.1 µM, ATP 20 µM): 90% | residual activity ([4]; compound 0.1 µM, ATP 50 µM): 94% | residual activity ([4]; compound 1.0 µM, ATP 20 µM): 86% | residual activity ([4]; compound 1.0 µM, ATP 50 µM): 83% | residual activity ([4]; compound 10.0 µM, ATP 20 µM): 95% | residual activity ([4]; compound 10.0 µM, ATP 50 µM): 67% | residual activity ([5]; compound 1.0 µM): 106% | residual activity ([5]; compound 10.0 µM): 102% | residual activity ([6]; compound 1.0 µM): 103% | residual activity ([6]; compound 10.0 µM): 99% | residual activity ([7]; compound 0.1 µM): 88% | residual activity ([7]; compound 1.0 µM): 90% | residual activity ([7]; compound 10.0 µM): 78% | residual activity ([8]; compound 0.1 µM): 93% | residual activity ([8]; compound 1.0 µM): 88% | residual activity ([8]; compound 10.0 µM): 83% | residual activity ([9]; compound 0.1 µM): 98% | residual activity ([9]; compound 1.0 µM): 87% | residual activity ([9]; compound 10.0 µM): 88% | residual activity ([10]; compound 0.1 µM): 100% | residual activity ([10]; compound 1.0 µM): 88% | residual activity ([10]; compound 10.0 µM): 46% | residual activity ([11]; compound 0.1 µM): 78% | residual activity ([11]; compound 1.0 µM): 75% | residual activity ([11]; compound 10.0 µM): 70% | residual activity ([12]; compound 0.1 µM): 98% | residual activity ([12]; compound 1.0 µM): 91% | residual activity ([12]; compound 10.0 µM): 58% | IC50 [13]: 4700 nM | residual activity ([13]; compound 0.1 µM): 85% | residual activity ([13]; compound 1.0 µM): 83% | residual activity ([13]; compound 10.0 µM): 33% | IC50 [14]: 950 nM | residual activity ([14]; compound 0.1 µM): 80% | residual activity ([14]; compound 1.0 µM): 42% | residual activity ([14]; compound 10.0 µM): 14%

From the kinase profiling compilation of Christmann-Franck et al. (2016)
